Results from patent US20120308662A1, “PARTICULATE PREPARATION AND METHOD FOR PRODUCING THE SAME” (NITTO DENKO CORPORATION, priority 2011, published 2012).
Where a name gives a salt, the structure may show the parent alone.

Experiments:
[1] = Dissolution test, flow-through cell method of the Japanese Pharmacopoeia; assay type: physicochemical; settings: Tamsulosin hydrochloride
Procedure: According to the flow-through cell method disclosed in the Japanese Pharmacopoeia, the test was carried out using a dissolution medium which was one of 1st fluid for dissolution test (pH 1.2), 2nd fluid for dissolution test (pH 6.8), and a disodium hydrogen phosphate-citric acid buffer solution at pH 7.2 (obtained by dissolving 7.1 g of dehydrated disodium hydrogen phosphate in water and adjusting the total volume to be 1000 mL, and adjusting the pH to 7.2 by adding, to the obtained solution, a solution obtained by dissolving 5.3 g of citric acid monohydrate in water and adjusting the total volume to be 1000 mL).
Swinnex Filter Holder 25 mm (from Nippon Millipore) was used for a cell. In order to prevent flowing out of the particulate formulations, a support screen (25 mm stainless, from Nippon Millipore), Durapore Membrane Filters (PVDF, Hydrophilic, 0.45 μm, 25 mm, from Nippon Millipore), and a silicon gasket 25 mm (Swinnex Filter Holder from Nippon Millipore) were successively installed. Masterflex L/S (Model 7524-50 from Cole Parmer Instrument COMPANY) was used as a pump and a dissolution medium was transported at 2.5 mL/min. Besides that, the test was carried out according to the flow-through cell method disclosed in the Japanese Pharmacopeia. An eluate was sampled 10, 30, 60 minutes after starting the test and the dissolution amount of the drug in the eluate was measured by high performance liquid chromatography (HPLC) and the dissolution rate to the initial drug content was calculated.

[2] = Measurement of average particle diameter of particulate formulation (automatic particle image analyzer); assay type: physicochemical; settings: particle diameter of 50% by volume; 20000 or more particles
Procedure: Herein, the “average particle diameter” means the particle diameter of 50% by volume of the entire particles and may be measured by using an “automatic particle image analyzer” (a particle image analyzer is an apparatus for measuring the particle diameter from images of photographed particles) and a “laser diffraction particle size distribution analyzer” (or a “laser diffraction/scattering particle size distribution analyzer”).
The average particle diameter was measured using 20000 or more particles with an automatic particle image analyzer (Morphologi (registered trade name)-G3 from Malvern Instruments).

CCOc1ccccc1OCCN[C@H](C)Cc1ccc(OC)c(S(N)(=O)=O)c1 [Comparative Example 9, Tamsulosin hydrochloride]
Elution rate ratio between pH 6.8 and pH 1.2 ([1]; 60 min): 2.4
Drug dissolution under a condition of pH 1.2, in words ([1]; pH 1.2): high drug dissolution rate
Pharmaceutical elution rate 60 minutes after starting the test(%) ([1]; pH 1.2, 60 min): 36.7%
Drug dissolution under a condition of pH 6.8, in words ([1]; pH 6.8): high drug dissolution rate
Pharmaceutical elution rate 60 minutes after starting the test(%) ([1]; pH 6.8, 60 min): 88.4%
Average particle diameter of particulate formulations [2]: 2.7 μm
